Patent US6514519B1, “Edelfosin for the treatment of brain tumors” (Med-Mark Pharma GmbH, priority 1998, dated 2003)
Values joined by “and” are separate entries in the source; they are usually repeats but may differ in a detail not shown here. Equal values may be shown once. “Also recorded” adds a separate entry of the source.

Assays:
[1] = adverse drug reactions (ADR) investigated during phase II studies; type: in vivo, humans
Description: During phase II studies, in accordance with requirements the adverse drug reactions (ADR) were also investigated. The result is shown in Table 2: The grading of the symptoms as transferred to the case report forms took place in accordance with the internationally used WHO classification. The assessment “yes” means that a symptom is caused by the medicine.

[2] = system: human leukemic cells; settings: cited from earlier work
[3] = system: brain tumors; assay: clinical phase II study with edelfosine: result of therapy and survival time; type: in vivo, humans; settings: for Result of therapy (clin.): assessed on clinical symptoms (clin.)
Protocol: The patients which are listed below in Table 1, with their status before and after treatment, were treated with edelfosine in the phase II study. It is important to emphasize in this connection that virtually all the patients have previously been treated or were from the outset untreatable (inoperable tumors). All the patients were treated with an average of 300 mg of edelfosine/day (range of variation between 50 and 600 mg). […] The carrier medium/active ingredient mixture is drunk in different dose levels/portion, which differed from patient to patient, distributed over the day. Administration is accordingly oral; the treatment is entirely on an outpatient basis, unless the clinical picture makes admission to hospital unavoidable.
The number and duration of previous treatments before the start of therapy with a medicine are crucial for assessing the therapeutic efficacy=survival time and quality of survival; the survival time is in such cases always measured from the time at which the therapy with a medicine is started. The time which has elapsed from diagnosis until the start of treatment initially plays no direct part in this. However, it must be taken into account when the survival time of a last resort therapy (as edelfosine in this case) is compared with that of therapies which are usually started immediately after diagnosis (this is the case for chemotherapy and radiation studies).
For virtually all the patients, a tumor which continued to grow after all the therapies used led to the edelfosine therapy, i.e. the tumor was progressive (cf. Table 1, column “Tumor activity”). The specification of “clinical” progression means in this connection that the tumor was progressive on the basis of deteriorating clinical symptoms (for example increase in headaches, congestion in the head, dizziness, tendency to fall, neurological symptoms in general), but no objective study (for example CT) was available for comparison.
The pharmacodynamic effect, i.e. the effect of a medicine directly on the tumor, is normally measured 2 months after starting a therapy. This pharmacodynamic effect is defined differently depending on which class the substance belongs to (that is to say cytostatic, hormone product, immunomodulator etc.). […] The aim of therapy is accordingly a cessation of tumor growth (no change).
The survival time is measured from the start of therapy with a medicine. The state of the art survival time data reported in the literature for the treatment of brain tumors are usually based on either adjuvant treatment of patients, that is to say directly after surgical removal of a tumor, or else on treatment immediately after making the diagnosis.

[4] = system: healthy cells; settings: healthy vs degenerate cells; cited from earlier work
[5] = ADR caused by edelfosine, number of 150 courses
[6] = ADR caused by edelfosine, number of 159 courses
[7] = ADR not caused by edelfosine, number of 149 courses
[8] = ADR not caused by edelfosine, number of 150 courses
[9] = ADR not caused by edelfosine, number of 159 courses
[10] = ADR possibly caused by edelfosine, number of 150 courses
[11] = ADR possibly caused by edelfosine, number of 159 courses
[12] = no symptom reported, number of 149 courses
[13] = no symptom reported, number of 150 courses
[14] = patients with Karnofsky index <70% (N=16)

CCCCCCCCCCCCCCCCCCOC[C@H](COP(=O)([O-])OCC[N+](C)(C)C)OC (racemic) [edelfosine, 1-octadecyl-2-methyl-sn-glycero-3-phosphocholine]
Appetite, Grade 1 yes [1, 5]: 4
Appetite, Grade 2 yes [1, 5]: 1
Appetite, Grade 3 yes [1, 5]: 2
Constipation, Grade 1 yes [1, 5]: 3
Diarrhea, Grade 1 yes [1, 5]: 5
Diarrhea, Grade 2 yes [1, 5]: 1
Nausea/vomiting, Grade 1 yes [1, 6]: 12
Nausea/vomiting, Grade 2 yes [1, 6]: 2
CNS toxicity, Grade 1 no ([1]; ADR not caused by edelfosine, number of 135 courses): 1
Skin changes, Grade 4 no ([1]; ADR not caused by edelfosine, number of 148 courses): 3
Alopecia, Grade 1 no [1, 7]: 3
Alopecia, Grade 2 no [1, 7]: 1
Alopecia, Grade 3 no [1, 7]: 3
Alopecia, Grade 4 no [1, 7]: 16
Pain, Grade 1 no [1, 7]: 7
Pain, Grade 2 no [1, 7]: 5
Pain, Grade 3 no [1, 7]: 3
Periph. neurop., Grade 1 no [1, 7]: 18
Appetite, Grade 1 no [1, 8]: 4
Appetite, Grade 2 no [1, 8]: 1
Appetite, Grade 3 no [1, 8]: 4
Appetite, Grade 4 no [1, 8]: 1
Arrhythmia, Grade 1 no [1, 8]: 5
Constipation, Grade 1 no [1, 8]: 1
Diarrhea, Grade 2 no [1, 8]: 1
Dyspnea, Grade 1 no [1, 8]: 4
Dyspnea, Grade 2 no [1, 8]: 3
Dyspnea, Grade 3 no [1, 8]: 1
Dyspnea, Grade 4 no [1, 8]: 1
Fever, Grade 1 no [1, 8]: 1
Fever, Grade 2 no [1, 8]: 7
Hemorrhages, Grade 1 no [1, 8]: 2
Infection, Grade 1 no [1, 8]: 3
Infection, Grade 2 no [1, 8]: 1
Nausea/vomiting, Grade 1 no [1, 9]: 1
Nausea/vomiting, Grade 2 no [1, 9]: 8
Nausea/vomiting, Grade 3 no [1, 9]: 2
CNS toxicity, Grade 1 ? ([1]; ADR possibly caused by edelfosine, number of 135 courses): 1
Alopecia, Grade 1 ? ([1]; ADR possibly caused by edelfosine, number of 149 courses): 1
Appetite, Grade 1 ? [1, 10]: 5
Appetite, Grade 2 ? [1, 10]: 2
Appetite, Grade 3 ? [1, 10]: 2
Constipation, Grade 1 ? [1, 10]: 3
Diarrhea, Grade 1 ? [1, 10]: 1
Nausea/vomiting, Grade 1 ? [1, 11]: 5
Nausea/vomiting, Grade 2 ? [1, 11]: 6
cumulative toxicity ([1]; after several years of uninterrupted therapy): no cumulative toxicity
reversibility of observed ADR symptoms ([1]; edelfosine therapy): reversible within a very short time (hours)
CNS toxicity, Grade 0 ([1]; no symptom reported, number of 135 courses): 133
Skin changes, Grade 0 ([1]; no symptom reported, number of 148 courses): 145
Alopecia, Grade 0 [1, 12]: 125
Hematuria, Grade 0 [1, 12]: 149
Pain, Grade 0 [1, 12]: 133
Periph. neurop., Grade 0 [1, 12]: 131
Stomatitis, Grade 0 [1, 12]: 149
Appetite, Grade 0 [1, 13]: 123
Arrhythmia, Grade 0 [1, 13]: 145
Constipation, Grade 0 [1, 13]: 143
Diarrhea, Grade 0 [1, 13]: 142
Dyspnea, Grade 0 [1, 13]: 141
Fever, Grade 0 [1, 13]: 142
Heart failure, Grade 0 [1, 13]: 150
Hemorrhages, Grade 0 [1, 13]: 148
Infection, Grade 0 [1, 13]: 146
Allergy, Grade 0 ([1]; no symptom reported, number of 151 courses): 151
Nausea/vomiting, Grade 0 ([1]; no symptom reported, number of 159 courses): 121
esophagoscopy, gastroscopy findings ([1]; patients with nausea/vomiting (gastric pressure) during edelfosine therapy): no pathological findings at all
adverse drug reactions of Pat. No. 542 ([1]; therapy of about 6 years, total dose of about 640 g): negligible adverse drug reactions; also recorded: no ADRs at all
apoptosis [2]: reinduction of apoptosis
Result of therapy ([3]; Anaplastic oligodendroglioma): No further progression
Result of therapy ([3]; Astrocytoma II): No further progression
Result of therapy ([3]; Astrocytoma II/III): No further progression
Survival time ([3]; Astrocytoma II/III): 412 days
Result of therapy (clin.) ([3]; Astrocytoma II): No further progression
Result of therapy ([3]; Ependymoblastoma): Progression
Survival time ([3]; Ependymoblastoma): 196 days
Result of therapy ([3]; Glioblastoma (Ø histol.)): Progression
Result of therapy (clin.) ([3]; Glioblastoma (Ø histol.)): No further progression
Result of therapy ([3]; Glioblastoma IV): Progression
Survival time ([3]; Glioblastoma IV): 143 days and 266 days
Result of therapy ([3]; Glioblastoma IV + Gliosarcoma): No further progression
Survival time ([3]; Glioblastoma IV + Gliosarcoma): 203 days
Result of therapy (clin.) ([3]; Glioblastoma IV): No further progression
Result of therapy (clin.) ([3]; Glioblastoma multiforme): No further progression
survival of Pat. No. 247 ([3]; Glioblastoma, many years after completion of therapy): survived until the 8th year
Result of therapy ([3]; Gliosarcoma): No further progression
Survival time ([3]; Gliosarcoma): 110 days
Survival time ([3]; Oligoastrocytoma II): 270 days
Result of therapy (clin.) ([3]; Oligoastrocytoma II): No further progression
Result of therapy ([3]; Oligoastrocytoma IV): No further progression
Survival time ([3]; Oligoastrocytoma IV): 1602 days
Result of therapy ([3]; Oligodendroglioma III): No further progression
Survival time ([3]; Oligodendroglioma III): 573 days
Result of therapy ([3]; Oligodendroglioma III/IV): No further progression
Survival time ([3]; Oligodendroglioma III/IV): 2141 days
Result of therapy ([3]; Oligodendroglioma IV): No further progression
Survival time ([3]; Oligodendroglioma IV): 572 days
patients with clinical stabilization/improvement although tumor progressive according to imaging ([3]; after 2 months): 2%
treated patients with tumor still progressive ([3]; after 2 months): about 24%
treated patients with stabilization on the basis of clinical symptoms (cNC=clinical no change) ([3]; after 2 months of therapy, no objective study): approx. 14%
treated patients with cessation of tumor growth (NC=no change) ([3]; imaging study after 2 months of therapy): about 56%
maximum gain in survival time ([3]; patients with Karnofsky index <70%): > 20 months
average survival time [3, 14]: about 260 days
range of variation of survival time [3, 14]: 90 to 619 days
fate in healthy cells after uptake [4]: degraded in healthy cells
